Test results taken from patent US9096593B2, “Compounds and methods for kinase modulation, and indications therefor” (Plexxikon Inc., priority 2009, dated 2015).
Like-named read-outs stand apart in the source and are kept apart here.

How the values were obtained:
BCR-FMS/BaF3 cells = BCR-FMS/BaF3 cells (Homo sapiens, UniProt P07333); test: BCR-FMS/BaF3 cell proliferation assay (ATPlite); assay type: cell-based
Method: Compounds are assessed in a variety of cell based assays. For example BCR-FMS/BaF3, BCR-KIT/BaF3, M-NFS-60, M-07e, and BAC1.2F5 cell proliferation assays are used to assess inhibitory activity of Fms or Kit and MV-4-11 cell proliferation assay is used to assess inhibitory activity in Flt-3. […] On day 1, cells are counted, then centrifuged in a conical tube for 5 minutes at 1000 rpm. The supernatant is removed and cells are re-suspended as follows: • BCR-FMS/BaF3 and BCR-KIT/BaF3: resuspend in growth media+1 mg/mL G418 (without WEHI/IL-3) to 2×10^5 cells/mL. • M-NFS-60: resuspend in growth media +62 ng/mL murine M-CSF to 5×10^5 cells/mL. • M-07e: resuspend in growth media +200 ng/mL human SCF to 5×10^5 cells/mL. • BAC1.2F5: resuspend in growth media +36 ng/mL murine M-CSF to 1.4×10^5 cells/mL. • MV-4-11: resuspend in growth media +10% FBS to 5×10^5 cells/mL. […] On day 2, compound at a maximum concentration of 5 mM is serially diluted 1:3 for a total of 8 point titration with DMSO as a control. A 1 μL aliquot of each dilution point is added to 249 μL growth media and 50 μL is added to a well containing cells, providing 10 μM compound for the maximum concentration point. The cells are incubated for 3 days at 37° C. in 5% CO2. […] ATPlite is added to each well as follows: • BCR-FMS/BaF3 and BCR-KIT/BaF3: 25 μL per well. • M-NFS-60: 25 μL per well. • M-07c: 40 μL per well. • BAC1.2F5: 50 μL per well. • MV-4-11: 40 μL per well. The cells are incubated at room temperature for 10 minutes, then luminescence is read on Safire reader. The measured luminescence correlates directly with cell number, such that the reading as a function of compound concentration is used to determine the IC50 value.

c-Kit kinase = c-Kit kinase (Homo sapiens (Human), UniProt P10721); test: c-Kit kinase biochemical activity assay (AlphaScreen, biotin-(E4Y)10 phosphorylation)
c-Kit kinase, sequence (P10721 26-976): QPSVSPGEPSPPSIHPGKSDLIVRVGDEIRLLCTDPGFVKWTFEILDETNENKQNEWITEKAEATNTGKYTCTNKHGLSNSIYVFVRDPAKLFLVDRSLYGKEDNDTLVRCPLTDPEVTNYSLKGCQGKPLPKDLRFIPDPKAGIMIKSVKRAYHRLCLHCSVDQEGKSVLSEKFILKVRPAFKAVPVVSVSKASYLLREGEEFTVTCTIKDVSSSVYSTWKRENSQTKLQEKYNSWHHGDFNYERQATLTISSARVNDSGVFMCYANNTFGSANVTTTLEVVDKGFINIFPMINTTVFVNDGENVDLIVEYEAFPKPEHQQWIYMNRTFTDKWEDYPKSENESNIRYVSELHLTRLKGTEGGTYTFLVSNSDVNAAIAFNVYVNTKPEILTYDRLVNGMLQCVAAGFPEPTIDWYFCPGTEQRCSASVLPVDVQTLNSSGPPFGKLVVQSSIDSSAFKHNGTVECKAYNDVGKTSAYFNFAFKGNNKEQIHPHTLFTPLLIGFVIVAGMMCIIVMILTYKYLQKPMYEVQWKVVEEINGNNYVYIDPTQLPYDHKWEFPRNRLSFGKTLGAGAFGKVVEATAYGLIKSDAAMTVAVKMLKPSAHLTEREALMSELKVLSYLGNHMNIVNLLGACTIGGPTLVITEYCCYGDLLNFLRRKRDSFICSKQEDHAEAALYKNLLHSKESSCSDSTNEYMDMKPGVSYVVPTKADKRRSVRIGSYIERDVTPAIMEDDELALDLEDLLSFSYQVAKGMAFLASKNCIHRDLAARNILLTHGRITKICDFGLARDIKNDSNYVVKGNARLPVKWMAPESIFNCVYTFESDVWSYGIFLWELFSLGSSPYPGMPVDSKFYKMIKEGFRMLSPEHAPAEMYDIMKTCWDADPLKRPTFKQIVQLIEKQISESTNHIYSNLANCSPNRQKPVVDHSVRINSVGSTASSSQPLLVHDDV
Method: In one assay the biochemical activity IC50 values are determined with respect to inhibition of c-Kit kinase activity, where inhibition of phosphorylation of a peptide substrate is measured as a function of compound concentration. Compounds to be tested are dissolved in DMSO to a concentration of 20 mM. These are diluted 30 μL into 120 μL of DMSO (4 mM) and 1 μL is added to an assay plate. These are then serially diluted […] (50 μL to 100 μL DMSO) for a total of 8 points. Plates are prepared such that each kinase reaction is 20 μL in 1× kinase buffer (25 mM HEPES, pH 7.5, 2 mM MgCl2, 2 mM MnCl2, 0.01% Tween-20, 1 mM DTT, 0.01% BSA), 5% DMSO and 100 μM ATP. Substrate is 30 nM biotin-(E4Y)10 (Millipore). C-kit kinase (obtained from Millipore (#14-559) or is prepared as described in U.S. Patent Application Publication Number 2009/0076046, the disclosure of which is hereby incorporated by reference as it relates to this assay) is at 0.75 ng per sample. After incubation of the kinase reaction for 1 hour at room temperature, 5 μL of donor beads (Streptavidin coated beads (Perkin Elmer Life Science) final concentration 10 μg/mL) in stop buffer (25 mM Hepes pH 7.5, 100 mM EDTA, 0.01% BSA) is added, the sample is mixed and incubated for 20 minutes at room temperature before adding 5 μL of acceptor beads (PY20 coated beads (Perkin Elmer Life Science) final concentration 10 μg/mL) in stop buffer. The samples are incubated for 60 minutes at room temperature and the signal per well is read on Envision reader. […] The signal vs. compound concentration is used to determine the IC50.

CYP1A2 = CYP1A2 (Homo sapiens (Human), UniProt P05177); test: CYP enzyme inhibition, fluorescent substrate; conditions: human, 15 min
CYP1A2, sequence (P05177 whole entry): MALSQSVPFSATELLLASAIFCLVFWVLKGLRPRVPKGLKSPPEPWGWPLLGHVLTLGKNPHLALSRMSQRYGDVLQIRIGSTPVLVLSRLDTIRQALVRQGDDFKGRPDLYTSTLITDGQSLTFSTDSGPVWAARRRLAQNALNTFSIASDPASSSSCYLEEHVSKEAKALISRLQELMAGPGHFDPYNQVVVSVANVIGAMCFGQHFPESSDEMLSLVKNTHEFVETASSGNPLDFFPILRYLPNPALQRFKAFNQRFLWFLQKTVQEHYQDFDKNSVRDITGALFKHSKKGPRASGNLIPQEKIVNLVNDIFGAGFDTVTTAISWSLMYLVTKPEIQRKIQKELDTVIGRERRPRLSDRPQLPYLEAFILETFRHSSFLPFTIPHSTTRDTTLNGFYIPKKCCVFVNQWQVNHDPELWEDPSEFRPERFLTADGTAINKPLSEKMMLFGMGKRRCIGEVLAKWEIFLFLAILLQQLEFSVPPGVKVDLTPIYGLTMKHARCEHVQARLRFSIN
Method: (§1) CYP (Cytochrome P450) enzymes are the major drug metabolizing enzymes present in the liver. The inhibition of CYP enzyme activity (IC50) for each of CYP1A2, CYP2C19, CYP2C9, CYP2D6, CYP3A4(BFC) and CYP3A4(BQ) is determined for compounds, where inhibition of metabolism of a known substrate leads to a decrease in the fluorescence of the metabolized product. The fluorescence of the product is monitored as a function of compound concentration.
(§2) Compounds are dissolved in DMSO to a concentration of 100 mM. These are diluted 1 μL into 82 μL of acetonitrile. An 11 μL aliquot of this solution is then added to 204 μL of cofactor mix (1.3% NADPH Regeneration system Solution A, 1.04% NADPH Regeneration system Solution B from BD Biosciences, 5% acetonitrile and 0.05% DMSO). These are then serially diluted 1:1 (160 μL to 160 μL co-factor mix) for a total of 10 points. A 10 μL aliquot of this final mixture is dispensed into 384 well assay plates and incubated for 10 minutes at 37° C. Enzyme and substrate mix (10 μL; […] CYP1A2/5 μM CEC; 1.0 μmol CYP2C9/75 μM MFC; […] CYP2C19/25 μM CEC; 1.5 μmol CYP2D6/1.5 μM AMMC; 1.0 μmol CYP3A4/50 μM BFC; or 1.0 μmol CYP3A4/40 μM BQ) is added to these assay plates. Assay plates are incubated at 37° C. (CYP1A2-15 min; CYP2C9-45 min; CYP2C19, 2D6 and 3A4-30 min) and read in a Tecan Safire 2 plate reader (CYP1A2, 2C19 and 3A4 409 ex/460 em; CYP2C9 and 2D6409 ex/530 em). The signal versus compound concentration is used to determine the IC50. The enzymes and substrates for this assay are obtained from BD Biosciences.

CYP2C9 = CYP2C9 (Homo sapiens (Human), UniProt P11712); test: CYP enzyme inhibition, fluorescent substrate
CYP2C9, sequence (P11712 whole entry): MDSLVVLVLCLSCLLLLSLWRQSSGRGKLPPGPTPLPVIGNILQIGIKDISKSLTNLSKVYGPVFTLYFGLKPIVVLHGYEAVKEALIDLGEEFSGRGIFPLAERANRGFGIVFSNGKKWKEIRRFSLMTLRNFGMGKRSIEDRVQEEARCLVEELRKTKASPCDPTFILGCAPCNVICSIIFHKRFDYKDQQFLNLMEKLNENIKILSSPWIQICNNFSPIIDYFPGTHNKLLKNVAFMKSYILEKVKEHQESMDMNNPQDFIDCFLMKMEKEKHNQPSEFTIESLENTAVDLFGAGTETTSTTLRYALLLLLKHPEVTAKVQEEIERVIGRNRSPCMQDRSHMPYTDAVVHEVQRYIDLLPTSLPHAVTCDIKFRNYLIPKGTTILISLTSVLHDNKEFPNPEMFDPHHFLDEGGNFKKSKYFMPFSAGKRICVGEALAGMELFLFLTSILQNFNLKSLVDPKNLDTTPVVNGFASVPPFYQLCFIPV
Method: as §1, §2

CYP2D6 = CYP2D6 (Homo sapiens (Human), UniProt P10635); test: CYP enzyme inhibition, fluorescent substrate; conditions: read-out: Cyp IC50 (μM) 2D6
CYP2D6, sequence (P10635 whole entry): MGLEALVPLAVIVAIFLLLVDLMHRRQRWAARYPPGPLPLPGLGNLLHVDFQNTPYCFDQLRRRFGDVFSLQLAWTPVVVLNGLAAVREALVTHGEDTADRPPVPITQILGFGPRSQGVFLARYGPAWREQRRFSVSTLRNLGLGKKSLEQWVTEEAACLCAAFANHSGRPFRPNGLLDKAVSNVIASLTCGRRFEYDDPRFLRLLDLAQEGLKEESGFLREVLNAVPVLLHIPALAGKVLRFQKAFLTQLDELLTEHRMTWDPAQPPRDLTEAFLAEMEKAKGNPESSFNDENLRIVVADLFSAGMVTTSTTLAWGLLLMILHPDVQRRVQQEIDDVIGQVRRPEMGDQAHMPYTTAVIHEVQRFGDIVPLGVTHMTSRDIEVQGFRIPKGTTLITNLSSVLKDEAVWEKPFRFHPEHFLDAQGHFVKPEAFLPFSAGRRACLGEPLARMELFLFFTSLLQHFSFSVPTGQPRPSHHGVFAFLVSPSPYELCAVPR
Method: as §1, §2

CYP3A4(BFC) = CYP3A4(BFC) (Homo sapiens (Human), UniProt P08684); test: CYP enzyme inhibition, fluorescent substrate; conditions: read-out: Cyp IC50 (μM) 3A4(BFC); BFC substrate
CYP3A4(BFC), sequence (P08684 whole entry): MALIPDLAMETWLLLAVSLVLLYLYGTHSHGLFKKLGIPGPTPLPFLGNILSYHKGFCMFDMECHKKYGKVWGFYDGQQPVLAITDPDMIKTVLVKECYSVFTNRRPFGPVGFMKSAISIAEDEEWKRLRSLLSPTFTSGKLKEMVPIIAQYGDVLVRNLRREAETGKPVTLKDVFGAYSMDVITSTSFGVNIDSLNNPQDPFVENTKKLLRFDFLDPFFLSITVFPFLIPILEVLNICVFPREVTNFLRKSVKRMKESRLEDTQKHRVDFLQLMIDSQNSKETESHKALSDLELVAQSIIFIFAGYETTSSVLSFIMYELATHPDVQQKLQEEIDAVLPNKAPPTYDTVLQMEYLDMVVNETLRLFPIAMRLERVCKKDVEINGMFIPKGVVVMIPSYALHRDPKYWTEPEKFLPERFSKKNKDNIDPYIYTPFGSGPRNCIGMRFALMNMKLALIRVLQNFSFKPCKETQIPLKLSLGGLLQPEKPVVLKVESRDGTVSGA
Method: as §1, §2

[1] = BCR-FMS/BaF3 cells; read-out: BCR/BaF3 (IC50 μM) Fms
[2] = Kit IC50/Fms IC50, BCR-KIT/BaF3 vs BCR-FMS/BaF3 cells
[3] = read-out: BCR/BaF3 (IC50 μM) Fms; BCR-FMS/BaF3 cells

BCR-FMS/BaF3 cells, sequence (P07333 20-972 limits assumed, change not shown): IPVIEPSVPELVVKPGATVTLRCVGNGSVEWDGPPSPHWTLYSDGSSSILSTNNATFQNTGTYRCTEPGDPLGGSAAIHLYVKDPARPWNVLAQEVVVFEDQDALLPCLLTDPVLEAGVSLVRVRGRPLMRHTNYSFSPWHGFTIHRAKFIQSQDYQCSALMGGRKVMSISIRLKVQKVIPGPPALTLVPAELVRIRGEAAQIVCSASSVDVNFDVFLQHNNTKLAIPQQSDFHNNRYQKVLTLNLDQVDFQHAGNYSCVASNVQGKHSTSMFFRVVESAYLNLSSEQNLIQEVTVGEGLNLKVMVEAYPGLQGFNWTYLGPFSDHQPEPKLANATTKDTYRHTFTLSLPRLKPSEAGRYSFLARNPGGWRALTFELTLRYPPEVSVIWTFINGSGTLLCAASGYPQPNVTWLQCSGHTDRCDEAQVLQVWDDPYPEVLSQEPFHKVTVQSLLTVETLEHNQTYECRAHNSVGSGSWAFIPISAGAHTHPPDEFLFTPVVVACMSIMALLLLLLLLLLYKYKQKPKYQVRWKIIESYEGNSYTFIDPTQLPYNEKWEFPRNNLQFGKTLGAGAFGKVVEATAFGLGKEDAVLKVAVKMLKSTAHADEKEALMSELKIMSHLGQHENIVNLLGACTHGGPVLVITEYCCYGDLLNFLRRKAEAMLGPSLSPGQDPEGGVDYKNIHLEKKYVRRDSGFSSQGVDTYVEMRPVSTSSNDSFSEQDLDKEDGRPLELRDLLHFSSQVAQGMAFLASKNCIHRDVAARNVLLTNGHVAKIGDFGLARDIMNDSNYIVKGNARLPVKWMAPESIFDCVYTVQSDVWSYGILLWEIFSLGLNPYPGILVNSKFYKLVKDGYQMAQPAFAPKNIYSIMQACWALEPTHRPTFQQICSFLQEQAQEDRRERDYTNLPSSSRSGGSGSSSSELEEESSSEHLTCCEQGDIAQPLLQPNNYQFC

SMILES	IC50 (c-Kit kinase) [µM]	IC50 (BCR-FMS/BaF3 cells; [1]) [µM]	BCR/BaF3 selectivity (Kit IC50/Fms IC50) (BCR-FMS/BaF3 cells; [2])	also measured
Fc1nc(NCc2ccc(Cl)cn2)ccc1Cc1c[nH]c2ncccc12 [Compound P-2044, (5-Chloro-pyridin-2-ylmethyl)-[6-fluoro-5-(1H-pyrrolo[2,3-b]pyridin-3-ylmethyl)-pyridin-2-yl]-amine]	–	–	–	IC50 (BCR-FMS/BaF3 cells; read-out: Cell based (IC50 μM) BCR/BaF3 (Fms); BCR-FMS/BaF3 cells, 3 days): < 0.1 µM
COc1ccc(CNc2ncc(Cc3c[nH]c4ncc(C)cc34)cc2C)cn1 [Compound P-1554, (6-Methoxy-pyridin-3-ylmethyl)-[3-methyl-5-(5-methyl-1H-pyrrolo[2,3-b]pyridin-3-ylmethyl)-pyridin-2-yl]-amine]	< 0.1	< 0.1	<20	–
COc1ncc(F)cc1CNc1ncc(Cc2c[nH]c3ncc(Cl)cc23)cn1 [Compound P-2064, [5-(5-Chloro-1H-pyrrolo[2,3-b]pyridin-3-ylmethyl)-pyrimidin-2-yl]-(5-fluoro-2-methoxy-pyridin-3-ylmethyl)-amine]	> 0.1	–	>20	IC50 (BCR-FMS/BaF3 cells; [3]): < 0.1 µM; IC50 (CYP1A2): > 10000 nM; IC50 (CYP2C9): 5000 to 10000 nM; IC50 (CYP2D6): > 10 µM; IC50 (CYP3A4(BFC)): > 10 µM
CCS(=O)(=O)Nc1cc(F)cc(CNc2ccc(Cc3c[nH]c4ncc(C)cc34)c(F)n2)c1 [Compound P-2202, Ethanesulfonic acid (3-fluoro-5-{[6-fluoro-5-(5-methyl-1H-pyrrolo[2,3-b]pyridin-3-ylmethyl)-pyridin-2-ylamino]-methyl}-phenyl)-amide]	> 0.1	< 0.1	<20	–
COc1ccc(CNc2ncc(Cc3c[nH]c4ncc(Cl)cc34)s2)cn1 [Compound P-2154, [5-(5-Chloro-1H-pyrrolo[2,3-b]pyridin-3-ylmethyl)-thiazol-2-yl]-(6-methoxy-pyridin-3-ylmethyl)-amine]	< 0.1	< 0.1	<20	–
Fc1cncc(CNc2ncc(Cc3c[nH]c4ncc(Cl)cc34)cn2)c1 [Compound P-2176, [5-(5-Chloro-1H-pyrrolo[2,3-b]pyridin-3-ylmethyl)-pyrimidin-2-yl]-(5-fluoro-pyridin-3-ylmethyl)-amine]	> 0.1	–	>20	IC50 (BCR-FMS/BaF3 cells; [3]): < 0.1 µM
Cc1cnc2[nH]cc(Cc3ccc(NCc4cnccc4C(F)(F)F)nc3)c2c1 [Compound P-2070, [5-(5-Methyl-1H-pyrrolo[2,3-b]pyridin-3-ylmethyl)-pyridin-2-yl]-(4-trifluoromethyl-pyridin-3-ylmethyl)-amine]	< 0.1	< 0.1	>20	–
COc1cccc(CNc2ncc(Cc3c[nH]c4ncc(Cl)cc34)s2)n1 [Compound P-2163, [5-(5-Chloro-1H-pyrrolo[2,3-b]pyridin-3-ylmethyl)-thiazol-2-yl]-(6-methoxy-pyridin-2-ylmethyl)-amine]	> 0.1	< 0.1	<20	–
Cc1cnc2[nH]cc(Cc3cnc(NCc4cccnc4OC4CCCC4)nc3)c2c1 [Compound P-2148, (2-Cyclopentyloxy-pyridin-3-ylmethyl)-[5-(5-methyl-1H-pyrrolo[2,3-b]pyridin-3-ylmethyl)-pyrimidin-2-yl]-amine]	> 0.1	< 0.1	<20	–
Cc1cccc(CNc2ncc(Cc3c[nH]c4ncc(Cl)cc34)cn2)c1 [Compound P-2013, [5-(5-Chloro-1H-pyrrolo[2,3-b]pyridin-3-ylmethyl)-pyrimidin-2-yl]-(3-methyl-benzyl)-amine]	< 0.1	< 0.1	<20	–
COc1cnc2[nH]cc(Cc3ccc(NCc4cccnc4OC)nc3F)c2c1 [Compound P-2043, [6-Fluoro-5-(5-methoxy-1H-pyrrolo[2,3-b]pyridin-3-ylmethyl)-pyridin-2-yl]-(2-methoxy-pyridin-3-ylmethyl)-amine]	–	–	>20	IC50 (BCR-FMS/BaF3 cells; [3]): < 0.1 µM; IC50 (CYP1A2): > 10000 nM; IC50 (CYP2C9): 5000 to 10000 nM; IC50 (CYP3A4(BFC)): > 10 µM
Fc1ccc(CNc2ncc(Cc3c[nH]c4ncc(Cl)cc34)cn2)cc1F [Compound P-2008, [5-(5-Chloro-1H-pyrrolo[2,3-b]pyridin-3-ylmethyl)-pyrimidin-2-yl]-(3,4-difluoro-benzyl)-amine]	< 0.1	< 0.1	<20	–
Cc1cnc2[nH]cc(Cc3cnc(NCc4ccc(Cl)nc4)nc3)c2c1 [Compound P-2078, (6-Chloro-pyridin-3-ylmethyl)-[5-(5-methyl-1H-pyrrolo[2,3-b]pyridin-3-ylmethyl)-pyrimidin-2-yl]-amine]	> 0.1	–	>20	IC50 (BCR-FMS/BaF3 cells; [3]): < 0.1 µM; IC50 (CYP1A2; CYP1A2 enzyme (BD Biosciences)): > 10000 nM; IC50 (CYP2C9; human, 45 min): < 5000 nM
COc1cnc2[nH]cc(Cc3ccc(NCc4ccccc4Cl)nc3F)c2c1 [Compound P-2034, (2-chloro-benzyl)-[6-fluoro-5-(5-methoxy-1H-pyrrolo[2,3-b]pyridin-3-ylmethyl)-pyridin-2-yl]-amine]	–	–	–	IC50 (BCR-FMS/BaF3 cells; BCR-FMS/BaF3 cells, 3 days; read-out: Cell based (IC50 μM) BCR/BaF3 (Fms)): < 0.1 µM
